These results are taken from patent US20240317752A1, “6-SUBSTITUTED-9H-PURINE DERIVATIVES AND RELATED USES” (Black Diamond Therapeutics, Inc., priority 2021, published 2024).

The test addresses T1, BaF3 BRAF-KIAA1549 fusion cells (Homo sapiens, UniProt P15056).
T1 construct: The BRAF-KIAA1549 fusion mutant was subcloned into pMXs-IRES-Blasticidin (RTV-016, Cell Biolabs, San Diego, CA); fused on or other part: Q9HCM3 (UPF0606 protein KIAA1549)
Put plainly: BaF3 BRAF-KIAA1549 fusion cell proliferation assay (CellTiterGlo). Format: cell-based. To be noted: 96 hours incubation, potency code. As for the experimental part:
Retroviral Production: The BRAF-KIAA1549 fusion mutant was subcloned into pMXs-IRES-Blasticidin (RTV-016, Cell Biolabs, San Diego, CA). Retrovirus was produced by transfection of HEK 293T cells with the retroviral BRAF mutant expression vector pMXs-IRES-Blasticidin (RTV-016, Cell Biolabs), pCMV-Gag-Pol vector and pCMV-VSV-G-Envelope vector. Briefly, HEK 293T cells were plated in Poly-D-lysine coated 6-well plate (2.5×10^5 cells per well) and incubated overnight. The next day, retroviral plasmids (1 μg of BRAF-KIAA fusion mutant, 0.32 μg of pCMV-Gag-Pol and 0.165 μg pCMV-VSV-G) were mixed in 300 μL of Optimem (31985, Life Technologies). The mixture was incubated at room temperature for 5 minutes and then added to Optimem containing transfection reagent Lipofectamine (11668, Invitrogen) and incubated for 20 minutes. The mixture was then added dropwise to HEK 293T cells. The next day the medium was replaced with fresh culture medium and retrovirus was harvested at 24 hours.
Generation of BRAF-KIAA1549 fusion stable cell line: BaF3 cells were plated in V-bottom 96 well plate (COSTAR #3894) in 80 μL of RPMI/10% FBS and 0.01 ng/ml mouse IL-3; supplemented with 8 μg/mL polybrene (4×10^4 cells/well). Cells were transduced with 20 μL of BRAF-KIAA1549 fusion viral supernatant by centrifuging for 30 minutes at 1000 rpm. Cells were placed in a 37° C. incubator overnight. Next day 100 μL of RPMI/10% FBS and 0.01 ng/ml mouse IL-3 was added. After 24 hours, 100 μL of cells were transferred to a 24 well plate containing 900 μL of RPMI/10% FBS and 15 μg/mL Blasticidin. Contents of the 24 well plate were sampled for cell viability via CellTiterGlo (Promega) over a 2-week period.
Assay for cell proliferation: BaF3 BRAF-KIAA1549 fusion cells were resuspended at 1.5×10^5c/mL in RPMI containing 10% Heat Inactivated FBS, 1% L-glutamine and dispensed in duplicate ([…]) into 384 well plates. To determine the effect of compound on cell proliferation, BaF3 BRAF-KIAA1549 fusion cells were incubated for 96 hours in the presence of vehicle control (DMSO) or compound at varying concentrations. Inhibition of cell growth was determined by luminescent quantification (Envision by Perkin Elmer) of intracellular ATP content using CellTiterGlo (Promega), according to the protocol provided by the manufacturer. To determine the IC50 values, the vehicle-treated cells were normalized as viable cells and analyzed using the CDD Vault, Collaborative Drug Discovery, Burlingame, CA (the Levenberg-Marquardt algorithm; Levenberg, K., […]; Marquardt, D., 1963).
Tables A1 and A2 assign each compound a code for potency in the BaF3 BRAF-KIAA1549 fusion cell proliferation assay: A, B, C, or D. According to the code, A represents an IC50 value <20 nM; B represents an IC50 value ≥20 nM and <100 nM; C represents an IC50 value ≥100 nM and <500 nM; and D represents an IC50 value ≥500 nM.

SMILES strings stand for the structures.

T1 sequence (P15056 whole entry, change not shown, the tested form may be a part): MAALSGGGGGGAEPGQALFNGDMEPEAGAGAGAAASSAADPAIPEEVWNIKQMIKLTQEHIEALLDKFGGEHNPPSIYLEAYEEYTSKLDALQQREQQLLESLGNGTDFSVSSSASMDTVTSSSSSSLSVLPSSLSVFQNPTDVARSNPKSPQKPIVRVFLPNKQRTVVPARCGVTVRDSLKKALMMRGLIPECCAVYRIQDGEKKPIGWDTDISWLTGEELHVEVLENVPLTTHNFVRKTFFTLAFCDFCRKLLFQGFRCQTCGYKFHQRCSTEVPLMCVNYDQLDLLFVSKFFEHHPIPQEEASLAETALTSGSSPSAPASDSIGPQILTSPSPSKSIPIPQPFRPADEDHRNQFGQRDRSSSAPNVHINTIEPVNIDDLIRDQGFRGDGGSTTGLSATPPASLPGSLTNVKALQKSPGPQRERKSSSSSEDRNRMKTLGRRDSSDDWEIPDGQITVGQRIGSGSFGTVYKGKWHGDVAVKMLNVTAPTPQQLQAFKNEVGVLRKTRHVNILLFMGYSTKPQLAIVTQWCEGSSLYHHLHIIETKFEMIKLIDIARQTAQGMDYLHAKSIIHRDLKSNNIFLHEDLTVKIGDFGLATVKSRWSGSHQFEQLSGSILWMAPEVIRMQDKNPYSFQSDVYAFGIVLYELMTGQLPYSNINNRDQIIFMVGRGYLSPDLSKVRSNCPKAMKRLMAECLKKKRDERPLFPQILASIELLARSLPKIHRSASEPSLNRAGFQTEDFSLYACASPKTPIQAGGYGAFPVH

Turning to `Cc1ccc(NC(=O)C[C@H]2CCC[C@@H](C(F)(F)F)C2)cc1Nc1ncccc1-c1ncnc2[nH]cnc12` (single isomer, unassigned) [IA-137], the GI50 was less than 20 nM. As to `Cc1ccc(NC(=O)C[C@@H]2CCC[C@H](C(F)(F)F)C2)cc1Nc1ncccc1-c1ncnc2[nH]cnc12` (single isomer, unassigned) [IA-138], the GI50 is less than 20 nM. Molecule `Cc1ccc(NC(=O)C[C@H]2CCC[C@H](C(F)(F)F)C2)cc1Nc1ncccc1-c1ncnc2[nH]cnc12` (single isomer, unassigned) [IA-139] returned a GI50 of less than 20 nM. As for `Cc1ccc(NC(=O)C[C@@H]2CCC[C@@H](C(F)(F)F)C2)cc1Nc1ncccc1-c1ncnc2[nH]cnc12` (single isomer, unassigned) [IA-140], the figure is less than 20 nM; as for `Cc1ccc(NC(=O)C[C@H]2CCN[C@@H](C(F)(F)F)C2)cc1Nc1ncccc1-c1ncnc2[nH]cnc12` (single isomer, unassigned) [IA-141], 100 to 500 nM; as for `Cc1ccc(NC(=O)C[C@@H]2CCN[C@H](C(F)(F)F)C2)cc1Nc1ncccc1-c1ncnc2[nH]cnc12` (single isomer, unassigned) [IA-142], 100 to 500 nM. Then `Cc1ccc(NC(=O)C[C@H]2CCN[C@H](C(F)(F)F)C2)cc1Nc1ncccc1-c1ncnc2[nH]cnc12` (single isomer, unassigned) [IA-143], with 100 to 500 nM; and `Cc1ccc(NC(=O)C[C@@H]2CCN[C@@H](C(F)(F)F)C2)cc1Nc1ncccc1-c1ncnc2[nH]cnc12` (single isomer, unassigned) [IA-144], with 100 to 500 nM. In turn, `Cc1ccc(NC(=O)C[C@H]2CCO[C@@H](C(F)(F)F)C2)cc1Nc1ncccc1-c1ncnc2[nH]cnc12` (single isomer, unassigned) [IA-146] yielded a concentration for 50% growth inhibition (GI50) of 20 to 100 nM. `Cc1ccc(NC(=O)C[C@H]2CCO[C@H](C(F)(F)F)C2)cc1Nc1ncccc1-c1ncnc2[nH]cnc12` (single isomer, unassigned) [IA-147] had a GI50 of 20 to 100 nM.

As for `Cc1ccc(NC(=O)C[C@@H]2CCO[C@@H](C(F)(F)F)C2)cc1Nc1ncccc1-c1ncnc2[nH]cnc12` (single isomer, unassigned) [IA-148], the GI50 lay in the range of 20 to 100 nM.

The molecule `Cc1ccc(NC(=O)C[C@@H]2CCO[C@H](C(F)(F)F)C2)cc1Nc1ncccc1-c1ncnc2[nH]cnc12` (single isomer, unassigned) [IA-149] registered a GI50 of 20 to 100 nM. As for `Cc1ccc(NC(=O)c2cc(C(F)(F)F)ccn2)cc1Nc1ncccc1-c1ncnc2[nH]cnc12` [Compound I-2, N-(3-(3-(9H-Purin-6-yl)pyridin-2-ylamino)-4-methylphenyl)-4-(trifluoromethyl)picolinamide], the figure is less than 20 nM; as for `Cc1ccc(NC(=O)CC2CCC(F)(F)CC2)cc1Nc1ncccc1-c1ncnc2[nH]cnc12` [Compound I-14, N-(3-(3-(9H-purin-6-yl)pyridin-2-ylamino)-4-methylphenyl)-2-(4,4-difluorocyclohexyl)acetamide], less than 20 nM. For the molecule `Cc1ncc(NC(=O)c2cc(C(F)(F)F)ccn2)cc1Nc1ncccc1-c1ncnc2[nH]cnc12` [Compound I-16, N-(5-(3-(9H-purin-6-yl)pyridin-2-ylamino)-6-methylpyridin-3-yl)-4-(trifluoromethyl)picolinamide], the GI50 is less than 20 nM. `Cc1ncc(NC(=O)c2ccnc(C(F)(F)F)c2)cc1Nc1ncccc1-c1ncnc2[nH]cnc12` [Compound I-17, N-(5-(3-(9H-purin-6-yl)pyridin-2-ylamino)-6-methylpyridin-3-yl)-2-(trifluoromethyl)isonicotinamide] came in with a GI50 of 20 to 100 nM. As for `Cc1ncc(NC(=O)c2cncc(C(F)(F)F)c2)cc1Nc1ncccc1-c1ncnc2[nH]cnc12` [Compound I-18, N-(5-(3-(9H-purin-6-yl)pyridin-2-ylamino)-6-methylpyridin-3-yl)-5-(trifluoromethyl)nicotinamide], the figure is 20 to 100 nM.
